Results on 13 compounds are retold here after US11028068B2, “Somatostatin modulators and uses thereof” (Crinetics Pharmaceuticals, Inc., priority 2017, dated 2021).

The target of this test is T1, human somatostatin receptor subtype 2 (Homo sapiens, UniProt P30874).
T1 construct: expressed in transfected cells; host or cells: CHO (Chinese hamster ovary) cells, cultured under G-418 selection
Put plainly: cAMP assay (inhibition of cAMP activities via sst2 receptor). It counts as cell-based. The following applies: CHO cells expressing the human somatostatin receptor subtype 2, forskolin. The text has this: General overview: All five SSTR subtypes are Gi coupled G-protein coupled receptors (GPCRs) that lead to decreases in intracellular cyclic AMP (cAMP) when activated by an agonist. Therefore, measurement of intracellular cAMP levels can be used to assess whether compounds of the invention are agonists of SSTR subtypes (John Kelly, Troy Stevens, W. Joseph Thompson, and Roland Seifert, Current Protocols in Pharmacology, 2005,2.2.1-2.2). One example of an intracellular cAMP assay is described below.
One day prior to the assay, 40,000 Chinese hamster ovary (CHO) cells expressing the human somatostatin receptor subtype 2 are plated in each well of a 96-well tissue culture plate in DM-MEM growth media (Gibco) with the following additives: 10% fetal bovine serum (Gibco), 100 U/mL penicillin (Gibco), 100 ug/mL streptomycin (Gibco), 10 mM HEPES (Gibco), 1.2 mM sodium hydroxide, 0.5 mg/mL G-418 (Gibco)). The cells are cultured overnight at 37° C., 5% CO2 and 95% humidity. On the day of the assay, the media is aspirated and the cells are washed with 1X Dulbecco's phosphate buffered saline (Gibco). Next, 5 μL of assay buffer (1× Earle's Balanced Salt Solution (Gibco), 5 mM MgCl2, 10 mM HEPES, 0.1% bovine serum albumin, 0.2 mM 3-Isobutyl-1-methylxanthine (IBMX, Biomol Research Labs)) and forskolin is added. Various dilutions of the compounds of the invention are prepared in assay buffer and 5 μL of the dilutions are added to the cultured cells and incubated for 15 minutes at 37° C. (the final concentration of the compounds of the invention are typically 0-10,000 nM). 10 μL of lysis buffer (HRTF cAMP kit, Cisbio) containing cAMP detection and visualization antibodies are added and the assay is allowed incubate for 1-24 hours at room temperature. The intracellular cAMP concentrations are then measured using a commercially available detection kit (for example, the cAMP HTRF kit, Cisbio). The measured intracellular cAMP concentrations are plotted vs. the concentration of the compounds of the invention and the EC50 of the compounds are calculated using standard methods.
A general note: Cyclic AMP is a second messenger, typically raised through Gs and lowered through Gi signalling.

A value given as a limit tells only on which side of the number the result lay.

Broadly, the EC50 is the midpoint of the concentration-response curve. A lower EC50 goes with a more potent agent.

T1 sequence (P30874 whole entry): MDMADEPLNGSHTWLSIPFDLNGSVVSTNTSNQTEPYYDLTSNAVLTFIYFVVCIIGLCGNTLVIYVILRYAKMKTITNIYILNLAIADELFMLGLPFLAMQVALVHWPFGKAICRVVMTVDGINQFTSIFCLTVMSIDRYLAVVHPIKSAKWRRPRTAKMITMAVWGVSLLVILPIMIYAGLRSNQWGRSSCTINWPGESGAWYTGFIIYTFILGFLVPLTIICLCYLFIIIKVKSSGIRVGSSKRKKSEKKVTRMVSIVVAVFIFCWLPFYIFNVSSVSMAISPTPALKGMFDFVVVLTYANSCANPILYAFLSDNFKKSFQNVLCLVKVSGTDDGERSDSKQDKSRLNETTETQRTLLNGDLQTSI

Compound `Cc1cc(Cl)cc(-c2cnc3ccc(-c4cc(O)cc(C#N)c4)nc3c2C(=O)N(C)C[C@@H]2CCCN2)c1` [Compound 2-4, 3-(3-chloro-5-methylphenyl)-6-(3-cyano-5-hydroxyphenyl)-N-methyl-N-[(2S)-pyrrolidin-2-ylmethyl]-1,5-naphthyridine-4-carboxamide] displayed an EC50 of 100 to 1000 nM.

For `CN(CC1CCCN1)C(=O)c1c(-c2cccc(CC(=O)O)c2)cnc2ccc(-c3cccc(O)c3)nc12` (stereo not shown) [Compound 2-20, 2-{3-[6-(3-hydroxyphenyl)-4-[methyl(pyrrolidin-2-ylmethyl)carbamoyl]-1,5-naphthyridin-3-yl]phenyl}acetic acid], the EC50 lay in the range of 100 to 1000 nM.

In turn, `Cc1cc(F)cc(-c2cnc3ccc(-c4cccnc4)cc3c2C(=O)N(C)C[C@@H]2CCCN2)c1` [Compound 3-48, 3-(3-fluoro-5-methylphenyl)-N-methyl-6-(pyridin-3-yl)-N-[(2S)-pyrrolidin-2-ylmethyl]quinoline-4-carboxamide] came in with an EC50 of less than 100 nM.

As to `Cc1cc(Cl)cc(-c2cnc3ccc(-c4cccc(O)c4)cc3c2C(=O)N(C)C[C@H]2CCCN2)c1` (single isomer, unassigned) [Compound 1-5], the midpoint of the response, the EC50, lay at 39 nM.

As to `CN(C[C@@H]1CCCN1)C(=O)c1c(N2Cc3ccc(C(F)(F)F)cc3C2)cnc2ccc(-c3cc(F)cc(C#N)c3)nc12` [Compound 3-55, 6-(3-cyano-5-fluorophenyl)-N-methyl-N-[(2S)-pyrrolidin-2-ylmethyl]-3-[5-(trifluoromethyl)-2,3-dihydro-1H-isoindol-2-yl]-1,5-naphthyridine-4-carboxamide], the EC50 was in the range of 100 to 1000 nM.

For `CC[C@H](N)CN(C)C(=O)c1c(-c2cc(C)cc(C)c2)cnc2ccc(-c3cc(O)cc(C#N)c3)nc12` [Compound 2-5, N-[(2S)-2-aminobutyl]-6-(3-cyano-5-hydroxyphenyl)-3-(3,5-dimethylphenyl)-N-methyl-1,5-naphthyridine-4-carboxamide], the EC50 is less than 100 nM.

In turn, `Cc1cc(F)cc(-c2cnc3ccc(N4CCCC(O)C4)nc3c2C(=O)N(C)C[C@@H]2CCCN2)c1` (stereo partly shown) [Compound 3-3] showed an EC50 of 100 to 1000 nM.

`CN(C[C@@H]1CCCN1)C(=O)c1c(N2CC3CC3C2)cnc2ccc(-c3cc(F)cc(C#N)c3)nc12` (stereo partly drawn) [Compound 3-69, 3-{3-azabicyclo[3.1.0]hexan-3-yl}-6-(3-cyano-5-fluorophenyl)-N-methyl-N-[(2S) -pyrrolidin-2-ylmethyl]-1,5-naphthyridine-4-carboxamide] yielded a concentration for a half-maximal effect (EC50) of 100 to 1000 nM.

Compound `CN(C[C@@H]1CCCN1)C(=O)c1ccnc2ccc(-c3cccc(O)c3)nc12` [Compound 3-1, 6-(3-hydroxyphenyl)-N-methyl-N-[(2S)-pyrrolidin-2-ylmethyl]-1,5-naphthyridine-4-carboxamide] showed an EC50 of less than 100 nM.

`CC[C@H](N)CN(C)C(=O)c1c(-c2cc(C)cc(Cl)c2)cnc2ccc(-c3cc(O)cc(C(N)=O)c3)cc12` [Compound 1-8, N-[(25)-2-aminobutyl]-6-(3-carbamoyl-5-hydroxyphenyl)-3-(3-chloro-5-methylphenyl)-N-methylquinoline-4-carboxamide]: the EC50 lay within 100 to 1000 nM.

Take `Cc1cc(F)cc(-c2cnc3ccc(-c4cncc(C#N)c4)cc3c2C(=O)N(C)C[C@@H]2CCCN2)c1` [Compound 3-8, 6-(5-cyanopyridin-3-yl)-3-(3-fluoro-5-methylphenyl)-N-methyl-N-[(2S)-pyrrolidin-2-ylmethyl]quinoline-4-carboxamide]: the EC50 is less than 100 nM.

Compound `CC[C@H](N)CN(C)C(=O)c1c(-c2cc(C)cc(F)c2)cnc2ccc(-c3cc(O)cc(C#N)c3)nc12` [Compound 2-7, N-[(2S)-2-aminobutyl]-6-(3-cyano-5-hydroxyphenyl)-3-(3-fluoro-5-methylphenyl)-N -methyl-1,5-naphthyridine-4-carboxamide] registered an EC50 of less than 100 nM.

The compound `CN(C[C@@H]1CCCN1)C(=O)c1c(N2CCCCC2)cnc2ccc(-c3cccc(O)c3)nc12` [Compound 3-11, 6-(3-hydroxyphenyl)-N-methyl-3-(piperidin-1-yl)-N-[(2S)-pyrroldin-2-ylmethyl]-1,5-naphthyridine-4-carboxamide] gave an EC50 of 100 to 1000 nM.
